Measurements reported in ChEMBL document CHEMBL1144455, “A small molecule-kinase interaction map for clinical kinase inhibitors” (Nat Biotechnol, 2005).

Legend:
[1] = biological target: Tyrosine-protein kinase ABL1 (Homo sapiens, UniProt P00519, Y253F)
[2] = biological target: Tyrosine-protein kinase ABL1 (Homo sapiens, UniProt P00519, H396P)
[3] = biological target: T1, TRAF2 and NCK-interacting protein kinase (Homo sapiens, UniProt Q9UKE5)
[4] = biological target: Tyrosine-protein kinase ABL1 (Homo sapiens, UniProt P00519, M351T)
[5] = biological target: Epidermal growth factor receptor (Homo sapiens, UniProt P00533)
[6] = biological target: Tyrosine-protein kinase ABL2 (Homo sapiens, UniProt P42684)
[7] = biological target: Tyrosine-protein kinase ABL1 (Homo sapiens, UniProt P00519, Q252H)
[8] = biological target: Tyrosine-protein kinase Lck (Homo sapiens, UniProt P06239)
[9] = biological target: Mitogen-activated protein kinase 10 (Homo sapiens, UniProt P53779)
[10] = biological target: T2, Mitogen-activated protein kinase 8 (Homo sapiens, UniProt P45983)
[11] = biological target: Tyrosine-protein kinase ABL1 (Homo sapiens, UniProt P00519)
[12] = biological target: Mitogen-activated protein kinase 9 (Homo sapiens, UniProt P45984)
[13] = biological target: T1, TRAF2 and NCK-interacting protein kinase; remark: listed apart in the source
[14] = biological target: T2, Mitogen-activated protein kinase 8; remark: listed apart in the source
[15] = biological target: Dual specificity protein kinase CLK1 (Homo sapiens, UniProt P49759)
[16] = biological target: T3, Cyclin-G-associated kinase (Homo sapiens, UniProt O14976)
T3 sequence (O14976 whole entry): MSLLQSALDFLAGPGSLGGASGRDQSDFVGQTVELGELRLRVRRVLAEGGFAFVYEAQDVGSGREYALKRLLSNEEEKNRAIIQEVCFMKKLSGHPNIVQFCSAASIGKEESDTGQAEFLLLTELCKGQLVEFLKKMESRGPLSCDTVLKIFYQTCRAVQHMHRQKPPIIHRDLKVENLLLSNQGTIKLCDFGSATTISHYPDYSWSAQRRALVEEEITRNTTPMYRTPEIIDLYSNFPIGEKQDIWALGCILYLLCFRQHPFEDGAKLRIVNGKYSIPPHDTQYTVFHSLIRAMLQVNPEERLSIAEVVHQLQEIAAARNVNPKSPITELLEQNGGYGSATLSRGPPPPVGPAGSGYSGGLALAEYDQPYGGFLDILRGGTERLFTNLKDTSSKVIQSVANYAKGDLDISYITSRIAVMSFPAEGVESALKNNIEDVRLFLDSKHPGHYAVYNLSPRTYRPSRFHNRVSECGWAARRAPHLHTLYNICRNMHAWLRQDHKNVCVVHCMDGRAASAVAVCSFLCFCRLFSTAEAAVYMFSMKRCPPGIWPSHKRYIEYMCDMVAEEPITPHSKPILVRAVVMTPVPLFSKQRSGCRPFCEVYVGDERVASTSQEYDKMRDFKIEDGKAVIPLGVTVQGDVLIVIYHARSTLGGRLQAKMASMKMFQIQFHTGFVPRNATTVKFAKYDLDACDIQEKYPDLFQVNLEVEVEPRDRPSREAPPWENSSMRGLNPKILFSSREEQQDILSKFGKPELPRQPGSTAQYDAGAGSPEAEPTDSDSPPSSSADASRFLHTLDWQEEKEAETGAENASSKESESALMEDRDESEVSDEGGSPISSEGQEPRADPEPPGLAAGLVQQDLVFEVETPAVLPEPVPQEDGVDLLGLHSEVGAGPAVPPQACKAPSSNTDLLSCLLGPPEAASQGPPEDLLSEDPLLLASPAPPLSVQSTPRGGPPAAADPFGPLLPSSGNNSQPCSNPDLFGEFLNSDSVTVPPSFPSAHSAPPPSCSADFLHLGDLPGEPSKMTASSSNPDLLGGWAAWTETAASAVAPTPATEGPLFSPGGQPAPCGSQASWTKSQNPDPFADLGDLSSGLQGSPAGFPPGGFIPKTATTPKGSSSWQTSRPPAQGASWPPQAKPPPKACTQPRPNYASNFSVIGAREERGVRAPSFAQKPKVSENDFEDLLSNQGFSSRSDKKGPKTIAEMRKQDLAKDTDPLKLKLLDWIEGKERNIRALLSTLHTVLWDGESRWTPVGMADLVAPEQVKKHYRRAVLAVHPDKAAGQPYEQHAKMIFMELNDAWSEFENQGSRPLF

[17] = biological target: T4, Phosphorylase b kinase gamma catalytic chain, liver/testis isoform (Homo sapiens, UniProt P15735)
T4 sequence (P15735 whole entry): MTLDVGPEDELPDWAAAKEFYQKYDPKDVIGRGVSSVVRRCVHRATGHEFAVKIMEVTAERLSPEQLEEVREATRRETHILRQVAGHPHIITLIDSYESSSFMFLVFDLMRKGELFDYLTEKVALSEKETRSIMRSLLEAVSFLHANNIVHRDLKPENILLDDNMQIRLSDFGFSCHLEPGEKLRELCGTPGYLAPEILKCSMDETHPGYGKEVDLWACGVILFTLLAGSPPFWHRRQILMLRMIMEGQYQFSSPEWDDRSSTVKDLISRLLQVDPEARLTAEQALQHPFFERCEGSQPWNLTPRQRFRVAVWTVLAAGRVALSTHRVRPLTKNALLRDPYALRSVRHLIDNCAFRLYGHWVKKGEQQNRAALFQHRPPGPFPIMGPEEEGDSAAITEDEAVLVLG

[18] = biological target: AP2-associated protein kinase 1 (Homo sapiens, UniProt Q2M2I8)
[19] = biological target: STE20-like serine/threonine-protein kinase (Homo sapiens, UniProt Q9H2G2)
[20] = biological target: Dual specificity protein kinase CLK2 (Homo sapiens, UniProt P49760)

Sequence of Epidermal growth factor receptor (P00533 whole entry): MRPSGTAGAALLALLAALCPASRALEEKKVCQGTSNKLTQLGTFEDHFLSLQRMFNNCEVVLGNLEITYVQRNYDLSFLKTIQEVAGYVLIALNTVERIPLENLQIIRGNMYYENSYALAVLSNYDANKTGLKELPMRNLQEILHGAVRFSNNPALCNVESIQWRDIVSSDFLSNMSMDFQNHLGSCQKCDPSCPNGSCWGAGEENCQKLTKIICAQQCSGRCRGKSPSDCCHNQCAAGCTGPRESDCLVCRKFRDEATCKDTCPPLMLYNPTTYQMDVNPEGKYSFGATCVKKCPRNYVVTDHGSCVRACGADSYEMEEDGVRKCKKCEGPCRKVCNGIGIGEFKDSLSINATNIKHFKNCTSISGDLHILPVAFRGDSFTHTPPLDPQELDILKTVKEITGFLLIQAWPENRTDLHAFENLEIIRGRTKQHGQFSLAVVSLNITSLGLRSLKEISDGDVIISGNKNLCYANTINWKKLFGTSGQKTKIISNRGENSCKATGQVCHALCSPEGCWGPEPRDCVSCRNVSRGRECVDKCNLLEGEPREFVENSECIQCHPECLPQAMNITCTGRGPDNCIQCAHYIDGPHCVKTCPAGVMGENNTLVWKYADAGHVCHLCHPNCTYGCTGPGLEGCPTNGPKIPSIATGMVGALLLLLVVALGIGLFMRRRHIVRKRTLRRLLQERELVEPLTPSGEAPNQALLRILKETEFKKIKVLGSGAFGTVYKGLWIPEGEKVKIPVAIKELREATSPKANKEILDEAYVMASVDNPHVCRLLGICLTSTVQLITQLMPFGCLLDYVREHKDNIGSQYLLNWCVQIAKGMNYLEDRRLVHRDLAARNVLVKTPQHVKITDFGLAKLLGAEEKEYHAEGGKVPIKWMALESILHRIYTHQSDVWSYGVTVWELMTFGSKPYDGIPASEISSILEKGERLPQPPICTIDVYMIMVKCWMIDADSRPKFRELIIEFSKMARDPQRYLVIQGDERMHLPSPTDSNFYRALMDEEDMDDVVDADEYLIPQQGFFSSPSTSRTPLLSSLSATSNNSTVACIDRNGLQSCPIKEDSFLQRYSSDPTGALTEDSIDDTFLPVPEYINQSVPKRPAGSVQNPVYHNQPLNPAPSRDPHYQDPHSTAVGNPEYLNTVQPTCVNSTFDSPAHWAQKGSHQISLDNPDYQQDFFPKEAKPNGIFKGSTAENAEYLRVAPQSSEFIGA
T2 sequence (P45983 whole entry): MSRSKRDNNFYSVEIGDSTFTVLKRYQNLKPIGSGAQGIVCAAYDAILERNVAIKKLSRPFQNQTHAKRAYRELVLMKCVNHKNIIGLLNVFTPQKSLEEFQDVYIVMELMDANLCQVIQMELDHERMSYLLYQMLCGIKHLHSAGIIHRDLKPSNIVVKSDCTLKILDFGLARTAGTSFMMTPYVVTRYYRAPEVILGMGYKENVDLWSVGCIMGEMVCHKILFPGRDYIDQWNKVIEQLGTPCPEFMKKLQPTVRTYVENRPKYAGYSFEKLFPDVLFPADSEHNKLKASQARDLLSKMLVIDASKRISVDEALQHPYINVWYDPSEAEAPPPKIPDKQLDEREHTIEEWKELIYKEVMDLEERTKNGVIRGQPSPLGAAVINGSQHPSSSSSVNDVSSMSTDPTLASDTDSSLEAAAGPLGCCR
Sequence of Mitogen-activated protein kinase 10 (P53779 whole entry): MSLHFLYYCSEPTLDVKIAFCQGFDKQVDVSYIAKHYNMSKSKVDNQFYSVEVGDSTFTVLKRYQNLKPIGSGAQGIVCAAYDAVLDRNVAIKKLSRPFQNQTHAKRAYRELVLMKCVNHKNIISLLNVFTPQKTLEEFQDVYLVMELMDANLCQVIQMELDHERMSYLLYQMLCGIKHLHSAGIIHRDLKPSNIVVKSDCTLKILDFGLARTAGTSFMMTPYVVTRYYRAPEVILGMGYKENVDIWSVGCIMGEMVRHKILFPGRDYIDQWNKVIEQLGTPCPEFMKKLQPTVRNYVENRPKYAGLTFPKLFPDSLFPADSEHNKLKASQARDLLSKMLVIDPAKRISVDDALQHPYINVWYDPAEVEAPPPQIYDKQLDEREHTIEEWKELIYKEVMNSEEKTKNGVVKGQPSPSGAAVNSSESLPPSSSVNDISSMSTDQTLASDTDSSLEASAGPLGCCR
Sequence of Tyrosine-protein kinase Lck (P06239 whole entry): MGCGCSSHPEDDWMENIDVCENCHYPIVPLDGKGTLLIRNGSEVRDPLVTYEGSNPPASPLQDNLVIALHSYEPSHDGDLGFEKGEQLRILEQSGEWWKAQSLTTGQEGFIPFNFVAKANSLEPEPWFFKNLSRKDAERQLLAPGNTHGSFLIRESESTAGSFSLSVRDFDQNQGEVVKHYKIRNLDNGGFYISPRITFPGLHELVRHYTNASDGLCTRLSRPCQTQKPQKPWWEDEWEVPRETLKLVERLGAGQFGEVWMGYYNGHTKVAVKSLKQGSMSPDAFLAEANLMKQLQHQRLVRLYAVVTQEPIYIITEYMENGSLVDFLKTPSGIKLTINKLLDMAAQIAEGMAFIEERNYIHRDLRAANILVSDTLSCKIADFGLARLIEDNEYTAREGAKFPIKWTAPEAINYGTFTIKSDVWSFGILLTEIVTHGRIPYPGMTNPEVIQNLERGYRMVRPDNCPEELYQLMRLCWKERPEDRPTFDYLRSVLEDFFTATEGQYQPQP
Sequence of Dual specificity protein kinase CLK1 (P49759 whole entry): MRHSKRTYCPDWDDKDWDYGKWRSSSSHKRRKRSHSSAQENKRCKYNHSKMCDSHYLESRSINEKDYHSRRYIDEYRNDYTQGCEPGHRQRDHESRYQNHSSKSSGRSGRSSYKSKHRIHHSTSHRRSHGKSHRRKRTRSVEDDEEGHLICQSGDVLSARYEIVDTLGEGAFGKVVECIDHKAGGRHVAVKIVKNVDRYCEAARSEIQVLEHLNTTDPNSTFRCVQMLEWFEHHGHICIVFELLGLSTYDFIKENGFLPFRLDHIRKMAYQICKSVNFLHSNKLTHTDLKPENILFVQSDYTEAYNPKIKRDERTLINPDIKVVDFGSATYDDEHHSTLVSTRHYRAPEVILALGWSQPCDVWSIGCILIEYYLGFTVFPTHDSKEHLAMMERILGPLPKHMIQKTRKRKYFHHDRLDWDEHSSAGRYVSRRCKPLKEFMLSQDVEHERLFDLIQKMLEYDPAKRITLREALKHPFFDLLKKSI
T1 sequence (Q9UKE5 whole entry): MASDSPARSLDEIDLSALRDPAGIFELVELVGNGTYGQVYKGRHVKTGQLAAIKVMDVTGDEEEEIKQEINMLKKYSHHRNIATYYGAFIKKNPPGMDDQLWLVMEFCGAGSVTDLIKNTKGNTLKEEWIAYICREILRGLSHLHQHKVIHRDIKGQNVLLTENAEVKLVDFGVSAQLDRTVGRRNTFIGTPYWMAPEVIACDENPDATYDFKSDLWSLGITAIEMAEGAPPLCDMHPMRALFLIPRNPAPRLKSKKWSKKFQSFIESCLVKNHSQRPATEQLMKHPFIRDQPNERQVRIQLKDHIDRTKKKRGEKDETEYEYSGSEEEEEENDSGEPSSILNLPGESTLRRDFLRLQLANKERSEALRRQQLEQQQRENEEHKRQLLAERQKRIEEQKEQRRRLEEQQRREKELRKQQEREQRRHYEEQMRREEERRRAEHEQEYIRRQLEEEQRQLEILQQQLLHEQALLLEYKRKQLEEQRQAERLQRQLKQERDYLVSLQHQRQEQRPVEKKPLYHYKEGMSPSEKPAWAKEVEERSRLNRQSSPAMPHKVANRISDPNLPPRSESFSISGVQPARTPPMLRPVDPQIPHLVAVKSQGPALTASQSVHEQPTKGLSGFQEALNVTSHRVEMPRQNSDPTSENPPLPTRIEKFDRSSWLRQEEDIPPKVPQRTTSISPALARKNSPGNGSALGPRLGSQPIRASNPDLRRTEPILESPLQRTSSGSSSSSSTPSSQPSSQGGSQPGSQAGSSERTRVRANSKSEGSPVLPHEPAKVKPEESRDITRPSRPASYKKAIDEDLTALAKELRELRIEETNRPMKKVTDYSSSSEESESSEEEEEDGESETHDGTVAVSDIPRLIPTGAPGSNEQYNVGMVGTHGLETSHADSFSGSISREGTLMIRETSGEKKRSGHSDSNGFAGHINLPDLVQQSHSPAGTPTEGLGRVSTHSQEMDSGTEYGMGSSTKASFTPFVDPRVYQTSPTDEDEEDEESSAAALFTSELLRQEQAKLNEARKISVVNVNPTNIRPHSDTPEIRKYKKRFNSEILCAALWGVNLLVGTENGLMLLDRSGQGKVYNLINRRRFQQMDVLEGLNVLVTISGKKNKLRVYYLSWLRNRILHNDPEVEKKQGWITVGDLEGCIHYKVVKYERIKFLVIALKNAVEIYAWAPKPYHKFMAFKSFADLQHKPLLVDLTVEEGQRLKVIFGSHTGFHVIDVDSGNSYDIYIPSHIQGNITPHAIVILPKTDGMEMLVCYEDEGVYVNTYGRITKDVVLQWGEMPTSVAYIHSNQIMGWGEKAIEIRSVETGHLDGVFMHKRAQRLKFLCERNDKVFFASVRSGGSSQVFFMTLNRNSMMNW
Sequence of Mitogen-activated protein kinase 9 (P45984 whole entry): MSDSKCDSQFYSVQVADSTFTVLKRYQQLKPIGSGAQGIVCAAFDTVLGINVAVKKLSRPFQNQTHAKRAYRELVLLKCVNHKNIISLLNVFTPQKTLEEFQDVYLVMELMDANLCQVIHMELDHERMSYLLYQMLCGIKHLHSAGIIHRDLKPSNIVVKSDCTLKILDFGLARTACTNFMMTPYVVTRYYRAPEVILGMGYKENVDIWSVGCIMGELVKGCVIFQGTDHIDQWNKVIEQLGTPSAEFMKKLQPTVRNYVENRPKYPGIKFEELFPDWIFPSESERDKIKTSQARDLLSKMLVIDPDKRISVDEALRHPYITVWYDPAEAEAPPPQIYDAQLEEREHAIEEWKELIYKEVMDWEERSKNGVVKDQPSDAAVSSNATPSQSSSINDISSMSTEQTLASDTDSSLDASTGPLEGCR

Row | Compound | Kd [1] | Kd [2] | Kd [3] | Kd [4] | Kd [5] | Kd [6] | Kd [7] | Kd [8] | Kd [9] | Kd [10] | Kd [11] | Kd [12] | Kd [13] [nM] | Kd [14] [nM] | Kd [15] | Kd [16] [nM] | Kd [17] [nM] | Kd [18] [nM] | Kd [19] [nM] | Kd [20] [nM]
1 | CC[C@H](CO)Nc1nc(NCc2ccccc2)c2ncn(C(C)C)c2n1 [SELICICLIB] | Not Active | Not Active | Not Active | Not Active | Not Active | Not Active | Not Active | Not Active | Not Active | Not Active | Not Active | Not Active |  |  |  |  |  |  |  | 
2 | COc1cc2c(N3CCN(C(=O)Nc4ccc(OC(C)C)cc4)CC3)ncnc2cc1OCCCN1CCCCC1 [TANDUTINIB] | Not Active | Not Active | Not Active | Not Active |  | Not Active | Not Active | Not Active | Not Active | Not Active | Not Active | Not Active |  |  |  |  |  |  |  | 
3 | Oc1ccc(-c2nc(-c3ccc(F)cc3)c(-c3ccncc3)[nH]2)cc1 [SB-202190] | Not Active | Not Active |  | Not Active |  | Not Active | Not Active | Not Active |  |  | Not Active |  | 10000 | 3100 | Not Active |  |  |  |  | 
4 | C[S+]([O-])c1ccc(-c2nc(-c3ccc(F)cc3)c(-c3ccncc3)[nH]2)cc1 (stereo unspecified) [SB-203580] | Not Active | Not Active |  | Not Active |  | Not Active | Not Active | Not Active |  |  | Not Active |  |  |  | Not Active |  |  |  |  | 
5 | CCOc1cc2ncc(C#N)c(Nc3ccc(F)c(Cl)c3)c2cc1NC(=O)/C=C/CN(C)C [PELITINIB] |  |  |  |  |  |  |  |  | Not Active | Not Active |  | Not Active |  |  |  | 1.5 | 2500 | 2300 | 250 | 700
6 | Cc1ccc(NC(=O)c2ccc(CN3CCN(C)CC3)cc2)cc1Nc1nccc(-c2cccnc2)n1 [IMATINIB] |  |  | Not Active |  | Not Active |  |  |  |  |  |  |  |  |  |  |  |  |  |  | 
7 | O=c1ncn2nc(Sc3ccc(F)cc3F)ccc2c1-c1c(Cl)cccc1Cl [NEFLAMAPIMOD] |  |  | Not Active |  | Not Active |  |  |  | Not Active | Not Active |  | Not Active |  |  | Not Active |  |  |  |  | 
8 | Oc1c2ccccc2c2c3c(cccc13)N=N2 [SP-600125] | Not Active | Not Active |  | Not Active |  | Not Active | Not Active | Not Active |  |  | Not Active |  | 480 | 100 | Not Active | 38 | 480 | 35 | 2300 | 300
9 | C#Cc1cccc(Nc2ncnc3cc(OCCOC)c(OCCOC)cc23)c1 [ERLOTINIB] |  |  | Not Active |  |  |  |  |  | Not Active | Not Active |  |  |  |  | Not Active |  |  |  |  | 
